Laboratory results published in patent US11111245B2, “Derivatives of N-cycloalkyl/heterocycloalkyl-4-(imidazo[1,2-a]pyridine)pyrimidin-2-amine as therapeutic agents” (Aucentra Therapeutics Pty Ltd, priority 2017, dated 2021).

Key:
CDK4/D1 = CDK4/D1 (Homo sapiens, UniProt P11802); assay: ADP Glo Kinase assay CDK4/D1; assay type: biochemical; conditions: CDK4D1; compound at 10 μM; read-out: residual activity (%) at 10 μM CDK4D1
Procedure: (§1) Eurofins Pharma Discovery or Reaction Biology Corporation Kinase Profiler services were used to measure inhibition of CDKs and other kinases by radiometric assay. Inhibition of CDK4/D1, CDK6/D3 and CDK9/T1 were also determined in-house using ADP Glo Kinase assays (Promega Corporation, Madison, USA). Briefly, the kinase reaction for CDK4/D1 and CDK6/D3 was performed with kinase reaction buffer ([…] Tris base pH 7.5, 20 mM MgCl2, 0.4 mM DTT), 0.1 mg/ml BSA and RB-CTF substrate (retinoblastoma protein 1 C-terminal fraction). For CDK9/CyclinT1, the kinase reaction was performed with standard assay buffer and Kinase Dilution Buffer and RBER-IRStide substrate. Serial dilutions of 1:3 were prepared for test compounds for 10 concentrations (from 10 μM to 0.5 nM). The kinase reactions were started by addition of ATP, incubated for 40 min at 37° C. and then stopped by adding 10 μL of ADP Glo reagent. After incubation at room temperature in the dark for 40 min, 20 μL of kinase detection reagent was added per well and incubated for 40 min. Luminescence was measured using an EnVision Multilabel plate reader (PerkinElmer, Buckinghamshire, UK). Positive and negative controls were performed in the presence and absence of CDK kinases, respectively. Half-maximal inhibition (IC50) values were calculated using a 4-parameter logistic non-linear regression model with Graphpad prism (Version 6.0). Apparent inhibition constants (Ki) values were calculated from Km (ATP) and IC50 values for the respective kinases.

CDK9/T1 = CDK9/T1 (Homo sapiens, UniProt P50750); assay: ADP Glo Kinase assay CDK9/T1; assay type: biochemical; conditions: CDK9T1; read-out: CDK inhibition, Ki (μM) CDK9T1
Procedure: as §1

CDKs and other kinases [1] = target: T1, CDKs and other kinases (Homo sapiens, UniProt P06493); assay: Radiometric kinase assay (Eurofins Pharma Discovery or Reaction Biology Corporation Kinase Profiler); assay type: biochemical; conditions: CDK1B; for remaining activity at 10 µM: compound at 10 μM, read-out: residual activity (%) at 10 μM CDK1B; for Ki: read-out: CDK inhibition, Ki (μM) CDK1B
T1 construct: other: CDK1B; residual activity (%) at 10 μM CDK1B; compound at 10 μM
Procedure: as §1

CDKs and other kinases [2] = target: T2, CDKs and other kinases (Homo sapiens, UniProt P24941); assay: as above; assay type: biochemical; conditions: CDK2A; for remaining activity at 10 µM: compound at 10 μM, read-out: residual activity (%) at 10 μM CDK2A
T2 construct: other: CDK2A; residual activity (%) at 10 μM CDK2A; compound at 10 μM
Procedure: as §1

CDKs and other kinases [3] = target: T3, CDKs and other kinases (Homo sapiens, UniProt P50613); assay: as above; assay type: biochemical; conditions: CDK7H; for Ki: read-out: CDK inhibition, Ki (μM) CDK7H; for remaining activity at 10 µM: compound at 10 μM, read-out: residual activity (%) at 10 μM CDK7H
T3 construct: other: CDK7H; residual activity (%) at 10 μM CDK7H; compound at 10 μM
Procedure: as §1

leukemia cell lines = assay: Resazurin cell viability assay on leukemia cell lines (72 h growth inhibition, GI50); assay type: cell-based; conditions: Homo sapiens, MV4-11 cells
Procedure: Compounds from Example 1 were subjected to a standard MTT (3-(4,5-dimethylthiazol-2-yl)-2,5-diphenyltetrazolium bromide) and resazurin assays on solid tumour cell lines and leukemia cell lines, respectively, as previously reported (Wang S et al., J Med Chem 47:1662-1675, 2004 and Diab S. et al. CheMedChem 9:962-972, 2014). Compound concentrations required to inhibit 50% of cell growth (GI50) were calculated using non-linear regression analysis.

CDK9/T1, sequence (P50750 whole entry): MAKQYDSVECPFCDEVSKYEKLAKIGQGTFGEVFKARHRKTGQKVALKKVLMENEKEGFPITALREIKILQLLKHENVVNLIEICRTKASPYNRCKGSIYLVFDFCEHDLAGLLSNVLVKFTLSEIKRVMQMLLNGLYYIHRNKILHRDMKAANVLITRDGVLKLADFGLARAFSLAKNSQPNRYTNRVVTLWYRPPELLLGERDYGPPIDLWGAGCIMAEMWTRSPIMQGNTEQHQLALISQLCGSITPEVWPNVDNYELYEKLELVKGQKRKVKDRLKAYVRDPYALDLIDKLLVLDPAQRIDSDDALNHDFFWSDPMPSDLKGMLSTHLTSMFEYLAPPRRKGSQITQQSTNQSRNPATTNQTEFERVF
CDK9/T1, sequence (O60563 whole entry partner): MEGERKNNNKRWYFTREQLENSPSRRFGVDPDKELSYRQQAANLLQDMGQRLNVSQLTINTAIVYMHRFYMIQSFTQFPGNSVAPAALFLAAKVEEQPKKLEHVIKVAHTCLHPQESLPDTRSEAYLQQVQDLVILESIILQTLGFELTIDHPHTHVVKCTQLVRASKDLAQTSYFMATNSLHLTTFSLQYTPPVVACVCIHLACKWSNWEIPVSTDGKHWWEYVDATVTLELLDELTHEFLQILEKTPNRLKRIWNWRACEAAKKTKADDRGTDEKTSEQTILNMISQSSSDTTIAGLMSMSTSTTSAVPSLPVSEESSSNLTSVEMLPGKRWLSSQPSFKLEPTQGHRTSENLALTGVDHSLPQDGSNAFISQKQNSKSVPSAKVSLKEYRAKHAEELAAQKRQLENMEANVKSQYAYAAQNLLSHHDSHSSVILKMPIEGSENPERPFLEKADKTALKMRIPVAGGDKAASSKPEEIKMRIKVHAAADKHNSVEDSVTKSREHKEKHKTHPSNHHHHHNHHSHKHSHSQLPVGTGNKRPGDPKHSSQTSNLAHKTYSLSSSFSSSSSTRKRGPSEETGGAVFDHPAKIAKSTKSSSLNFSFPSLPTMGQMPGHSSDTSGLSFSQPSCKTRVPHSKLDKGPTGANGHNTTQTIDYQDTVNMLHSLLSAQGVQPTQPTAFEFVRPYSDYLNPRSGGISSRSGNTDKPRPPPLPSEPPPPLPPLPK
T3 sequence (P50613 whole entry): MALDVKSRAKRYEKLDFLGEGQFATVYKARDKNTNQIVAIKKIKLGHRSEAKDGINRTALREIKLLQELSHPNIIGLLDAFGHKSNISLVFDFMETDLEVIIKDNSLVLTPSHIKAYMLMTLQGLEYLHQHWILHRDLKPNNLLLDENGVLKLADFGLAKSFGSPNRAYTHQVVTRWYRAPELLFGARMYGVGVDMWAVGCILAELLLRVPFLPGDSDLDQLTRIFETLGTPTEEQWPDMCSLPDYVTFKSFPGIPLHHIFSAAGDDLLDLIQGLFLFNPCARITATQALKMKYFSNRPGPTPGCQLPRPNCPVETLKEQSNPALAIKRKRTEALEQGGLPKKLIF
CDK4/D1, sequence (P11802 whole entry): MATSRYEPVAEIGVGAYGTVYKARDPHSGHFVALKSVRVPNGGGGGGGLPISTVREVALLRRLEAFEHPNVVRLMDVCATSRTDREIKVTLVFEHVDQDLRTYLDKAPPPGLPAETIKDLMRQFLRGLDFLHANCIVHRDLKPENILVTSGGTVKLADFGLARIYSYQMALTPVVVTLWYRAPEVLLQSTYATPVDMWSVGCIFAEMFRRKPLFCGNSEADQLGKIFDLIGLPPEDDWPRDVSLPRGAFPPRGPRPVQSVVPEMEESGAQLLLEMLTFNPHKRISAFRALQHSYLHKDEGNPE
CDK4/D1, sequence (P24385 whole entry partner): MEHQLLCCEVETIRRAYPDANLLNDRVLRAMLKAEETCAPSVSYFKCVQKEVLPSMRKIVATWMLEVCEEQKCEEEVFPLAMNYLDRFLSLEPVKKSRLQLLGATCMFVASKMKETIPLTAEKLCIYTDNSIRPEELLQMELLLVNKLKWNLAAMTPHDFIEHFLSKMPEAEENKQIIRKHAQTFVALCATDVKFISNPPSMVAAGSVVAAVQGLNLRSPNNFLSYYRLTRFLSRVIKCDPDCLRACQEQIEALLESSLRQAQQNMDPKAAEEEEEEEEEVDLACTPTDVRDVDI
T1 sequence (P06493 whole entry): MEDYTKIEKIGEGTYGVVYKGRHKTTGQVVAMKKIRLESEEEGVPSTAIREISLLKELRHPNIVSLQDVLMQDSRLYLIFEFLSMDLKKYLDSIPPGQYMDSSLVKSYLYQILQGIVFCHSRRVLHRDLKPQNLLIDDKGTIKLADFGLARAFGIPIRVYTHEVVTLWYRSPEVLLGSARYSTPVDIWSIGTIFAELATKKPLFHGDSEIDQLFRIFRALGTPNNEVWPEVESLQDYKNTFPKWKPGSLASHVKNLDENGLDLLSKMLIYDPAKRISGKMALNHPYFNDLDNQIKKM

Row | remaining activity at 10 µM (CDK4/D1) [%] | Ki (CDK9/T1) [µM] | remaining activity at 10 µM (CDKs and other kinases [1]) [%] | remaining activity at 10 µM (CDKs and other kinases [2]) [%] | Ki (CDKs and other kinases [3]) [µM] | GI50 (leukemia cell lines) [µM] | remaining activity at 10 µM (CDKs and other kinases [3]) [%] | Ki (CDKs and other kinases [1]) [µM] | Ki (CDKs and other kinases [2]; read-out: CDK inhibition, Ki (μM) CDK2A) [µM] | Structure (SMILES)
1 | 65 | 0.53 | 39 | 61 | 0.597 | 0.242 ± 0.132 | – | – | – | Cc1cnc(N[C@H]2CC[C@H](N3CCCC3)CC2)nc1-c1cnc2ccc(-c3ccccc3)cn12 [Compound 140, 5-Methyl-4-(6-phenylimidazo[1,2-a]pyridin-3-yl)-N-((1r,4r)-4-(pyrrolidin-1-yl)cyclohexyl)pyrimidin-2-amine]
2 | 8 | 0.025 | 23 | 15 | – | 0.064 ± 0.017 | 39 | – | – | Cc1cnc(N[C@H]2CC[C@H](N3CCCC3)CC2)nc1-c1cnc2ccc(Nc3cncnc3)cn12 [Compound 142, 3-(5-Methyl-2-(((1r,4r)-4-(pyrrolidin-1-yl)cyclohexyl)amino)pyrimidin-4-yl)-N-(pyrimidin-5-yl)imidazo [1,2-a]pyridin-6-amine]
3 | 4 | 0.108 | 3 | 4 | 0.088 | 0.003 ± 0.001 | – | – | – | Fc1cnc(NC2CCNCC2)nc1-c1cnc2ccc(-c3ccccc3)cn12 [Compound 143, 5-Fluoro-4-(6-phenylimidazo[1,2-a]pyridin-3-yl)-N-(piperidin-4-yl)pyrimidin-2-amine]
4 | 20 | 0.138 | – | 8 | 0.072 | 0.005 ± 0.003 | – | 0.047 | – | CN1CCC(Nc2ncc(F)c(-c3cnc4ccc(-c5ccccc5)cn34)n2)CC1 [Compound 144, 5-Fluoro-N-(1-Methylpiperidin-4-yl)-4-(6-phenylimidazo [1,2-a]pyridin-3-yl)pyrimidin-2-amine]
5 | 34 | 1.82 | 16 | 34 | 0.37 | 0.026 ± 0.003 | – | – | – | Fc1cnc(NC2CCN(CC3CCCC3)CC2)nc1-c1cnc2ccc(-c3ccccc3)cn12 [Compound 146, N-(1-(Cyclopentylmethyl)piperidin-4-yl)-5-fluoro-4-(6-phenylimidazo[1,2-a]pyridin-3-yl)pyrimidin-2-amine]
6 | 70 | 0.711 | – | – | – | 0.62 ± 0.26 | 54 | 0.334 | 0.015 | CS(=O)(=O)N1CCC(Nc2ncc(F)c(-c3cnc4ccc(-c5ccccc5)cn34)n2)CC1 [Compound 147, 5-Fluoro-N-(1-(methylsulfonyl)piperidin-4-yl)-4-(6-phenylimidazo[1,2-a]pyridin-3-yl)pyrimidin-2-amine]
7 | 70 | 0.261 | 27 | 46 | – | 0.023 ± 0.007 | 18 | – | – | CN1CCC(Nc2ncc(F)c(-c3cnc4ccc(-c5ccc(S(=O)(=O)N(C)C)cc5)cn34)n2)CC1 [Compound 148, 4-(3-(5-Fluoro-2-((1-methylpiperidin-4-yl)amino)pyrimidin-4-yl)imidazo[1,2-a]pyridin-6-yl)-N,N-dimethylbenzenesulfonamide]
8 | 3 | 0.178 | 9 | 20 | 0.313 | 0.145 ± 0.001 | – | – | – | CN1CCC(Nc2ncc(F)c(-c3cnc4ccc(Nc5cncnc5)cn34)n2)CC1 [Compound 149, 3-(5-Fluoro-2-((1-methylpiperidin-4-yl)amino)pyrimidin-4-yl)-N-(pyrimidin-5-yl)imidazo[1,2-a]pyridin-6-amine]
9 | 21 | 0.149 | 45 | 11 | 0.372 | 0.42 ± 0.02 | – | – | – | Cc1cnc(N[C@H]2CC[C@H](N)CC2)nc1-c1cnc2cc(C(F)(F)F)c(-c3ccccc3)cn12 [Compound 150, (1r,4r)-N1-(5-Methyl-4-(6-phenyl-7-(trifluoromethyl)imidazo[1,2-a]pyridin-3-yl)pyrimidin-2-yl)cyclohexane-1,4-diamine]
10 | 93 | > 5 | 96 | 87 | – | 8.643 ± 0.01 | 94 | – | – | Cc1cnc(N[C@H]2CC[C@H](C)CC2)nc1-c1cnc2ccc(-c3ccccc3)cn12 [Compound 151, 5-Methyl-N-((1r,4r)-4-methylcyclohexyl)-4-(6-phenylimidazo[1,2-a]pyridin-3-yl)pyrimidin-2-amine]
11 | 20 | 0.181 | 34 | 5 | – | 2.86 ± 0.29 | 55 | – | – | Cc1cnc(N[C@H]2CC[C@H](C)CC2)nc1-c1cnc2ccc(Nc3cncnc3)cn12 [Compound 152, 3-(5-Methyl-2-(((1r,4r)-4-methylcyclohexyl)amino)pyrimidin-4-yl)-N-(pyrimidin-5-yl)imidazo[1,2-a]pyridin-6-amine]
12 | 0 | 0.01 | – | 14 | – | 9.32 ± 0.73 | 49 | 0.632 | – | Cc1cnc(N[C@H]2CC[C@H](NCC(N)=O)CC2)nc1-c1cnc2ccc(Nc3cncnc3)cn12 [Compound 153, 2-(((1r,4r)-4-((5-Methyl-4-(6-(pyrimidin-5-ylamino)imidazo[1,2-a]pyridin-3-yl)pyrimidin-2-yl)amino)cyclohexyl)amino)acetamide]
13 | 3 | 0.022 | 14 | 7 | – | > 10 | 37 | – | – | Cc1cnc(N[C@H]2CC[C@H](N(CC(N)=O)CC(N)=O)CC2)nc1-c1cnc2ccc(Nc3cncnc3)cn12 [Compound 154, 2,2′-(((1r,4r)-4-((5-Methyl-4-(6-(pyrimidin-5-ylamino)imidazo[1,2-a]pyridin-3-yl)pyrimidin-2-yl)amino)cyclohexyl)azanediyl)diacetamide]
14 | 96 | > 5 | 100 | 100 | – | 7 ± 2.03 | 99 | – | – | Cc1cnc(NC2CCC(F)(F)CC2)nc1-c1cnc2ccc(-c3ccccc3)cn12 [Compound 155, N-(4,4-Difluorocyclohexyl)-5-methyl-4-(6-phenylimidazo [1,2-a]pyridin-3-yl)pyrimidin-2-amine]
15 | 51 | > 5 | 77 | 34 | – | 3.3 ± 0.31 | 80 | – | – | Cc1cnc(NC2CCC(F)(F)CC2)nc1-c1cnc2ccccn12 [Compound 156, N-(4,4-Difluorocyclohexyl)-4-(imidazo[1,2-a]pyridin-3-yl)-5-methylpyrimidin-2-amine]
16 | 32 | 0.527 | 69 | 38 | – | 2.4 ± 0.09 | 90 | – | – | COC(=O)[C@H]1CC[C@H](Nc2ncc(C)c(-c3cnc4ccc(Nc5cncnc5)cn34)n2)CC1 [Compound 157, Methyl (1r,4r)-4-((5-methyl-4-(6-(pyrimidin-5-ylamino)imidazo[1,2-a]pyridin-3-yl)pyrimidin-2-yl)amino) cyclohexane-1-carboxylate]
17 | 92 | 0.185 | 94 | 85 | – | > 10 | 98 | – | – | Cc1cnc(N[C@H]2CC[C@H](C(=O)O)CC2)nc1-c1cnc2ccc(Nc3cncnc3)cn12 [Compound 158, (1r,4r)-4-((5-Methyl-4-(6-(pyrimidin-5-ylamino)imidazo [1,2-a]pyridin-3-yl)pyrimidin-2-yl)amino)cyclohexane-1-carboxylic acid]
